Test results from PMC1456331 (Nucleic Acids Research, 2006).

How the values were obtained:
[1] = system: Phoenix Eco cells
[2] = system: Phoenix Eco cells; assay: Cellular uptake of fluorescein-labeled oligomers; assay type: cell-based
[3] = system: Phoenix Eco cells; assay: Live-cell confocal microscopy, intracellular localization; assay type: cell-based
[4] = estimated; 5 µM oligomer, 37°C, DMEM/10% FBS; denaturing gel, densitometry

Row | Compound | cell viability [1] | time of maximum uptake ([2]; in the presence of LFA) [h] | fluorescence in treated cells (in words) ([2]; in the presence of Lipofectamine-2000 (LFA), oligomer or its duplex with CT-ODN, after 4 h already) | intracellular distribution (in words) [3] | half-life [4] [h]
1 | CCN(CC)CCCC(C)Nc1ccnc2cc(Cl)ccc12 (centres unmarked) [chloroquine] | 80–85% | – | – | – | –
2 | pHypNA TCACTCAACACTCAC-Flu: fluorescein-labeled trans-L pHypNA oligomer, sequence TCACTCAACACTCAC-Flu (pHypNA backbone; fluorescein) | – | 20 to 24 | high level of fluorescence | evenly distributed in the cytoplasm with preferential staining of the nucleus | ~72
